One series concerns the target phosphodiesterase enzyme type 5 (PDE5) (Homo sapiens, UniProt O76074). The series is described as follows: In vitro enzyme assay (Transcreener fluorescence polarization). It counts as biochemical. The following applies: 10-dose, 3-fold serial dilution starting at 50 uM. Here is the method: Tested compounds (series B, D, E and G) were tested against phosphodiesterase enzyme type 5 (PDE5) in order to investigate their inhibitory activities. The in vitro enzyme assay was conducted using Transcreener Fluorescence polarization assay to detect the reaction product GMP. The compounds were suspended in DMSO to make 10 mM stock solutions. The procedure was conducted using the following buffer system; 10 mM Tris, pH 7.5, 5 mM MgCl2, 0.01% Brij 35, 1 mM DTT and 1% DMSO. […] The tested samples were added into the enzyme by Acoustic Technology. The substrate was added and incubated for 1 h. Fluorescence polarization (FP) was measured after 90 min incubation at rt and mP was calculated. Data were analyzed based on the GMP standard curve.
On the technique in general: Polarisation of emitted light reports the rotation of a fluorescent probe.
By IC50 is commonly meant the midpoint of a concentration-inhibition curve. Molecule `O=C(Cc1nc2ncccc2[nH]c1=O)N/N=C/c1ccccc1` [Compound 6a] had an IC50 of 59.1 nM.
On the same count and under the same terms, with `O=C(Cc1nc2ncccc2[nH]c1=O)N/N=C/c1ccc([N+](=O)[O-])cc1` [Compound 6b] the figure was 67.9 nM; with `COc1ccc(/C=N/NC(=O)Cc2nc3ncccc3[nH]c2=O)cc1` [Compound 6c], 47 nM.
Regarding `CCN(CC)Cc1nc2ncccc2[nH]c1=O` [Compound 8a], the midpoint of inhibition, the IC50, lay at 93.8 nM.
Same read-out and setting: with `O=c1[nH]c2cccnc2nc1CN1CCCCC1` [Compound 8b] the figure was 44.6 nM; with `O=c1[nH]c2cccnc2nc1CN1CCOCC1` [Compound 8c], 89 nM.
Still for that read-out and setting: with `O=c1[nH]c2cccnc2nc1CNc1ccccc1` [Compound 8d] the figure was 101 nM; with `Cc1cccc(NCc2nc3ncccc3[nH]c2=O)c1` [Compound 8f], 21 nM; with `O=c1[nH]c2cccnc2nc1CNc1ccc(Br)cc1` [Compound 8i], 137 nM.
The same measure, in the same setting: with `O=c1[nH]c2cccnc2nc1CN/N=C/c1ccccc1` [Compound 9a] the figure was 32.2 nM; with `O=c1[nH]c2cccnc2nc1CN/N=C/c1ccc(Cl)cc1` [Compound 9b], 30.4 nM.
Molecule `O=c1[nH]c2cccnc2nc1CN/N=C/c1ccc([N+](=O)[O-])cc1` [Compound 9c] yielded an IC50 of 41.4 nM.
Same read-out and setting: the same measure for `COc1ccc(/C=N/NCc2nc3ncccc3[nH]c2=O)cc1` [Compound 9d]: 32.3 nM; for `C/C(=N\NCc1nc2ncccc2[nH]c1=O)c1ccccc1` [Compound 9e]: 29.4 nM.
In turn, `CC(=O)N1N=C(Cc2nc3ncccc3[nH]c2=O)OC1c1ccccc1` (centres unmarked) [Compound 11a] registered an IC50 of 26.3 nM.
The same measure, in the same setting: the same measure for `CC(=O)N1N=C(Cc2nc3ncccc3[nH]c2=O)OC1c1ccc([N+](=O)[O-])cc1` (centres unmarked) [Compound 11b]: 18.1 nM.
Same read-out and setting: the same measure for `COc1ccc(C2OC(Cc3nc4ncccc4[nH]c3=O)=NN2C(C)=O)cc1` (centres unmarked) [Compound 11c]: 31 nM.

Tested on in the next series: not given
Test: not given
Conditions: not given
As a reminder, the melting point is the temperature, or range, at which the solid turns liquid. In turn, `O=C(Cc1nc2ncccc2[nH]c1=O)NNC(=O)Nc1ccccc1` [Compound 5a] had a melting point of 218 to 220 °C.
Take `O=C(Cc1nc2ncccc2[nH]c1=O)NNC(=O)Nc1ccc(Cl)cc1` [Compound 5b]: the melting point was in the range of 230 to 232 °C.
With `O=C(Cc1nc2ncccc2[nH]c1=O)NNC(=S)Nc1ccccc1` [Compound 5c], the melting point was 234 to 236 °C.
On the same count and under the same terms, the same measure for `O=C(Cc1nc2ncccc2[nH]c1=O)N/N=C/c1ccccc1` [Compound 6a]: 228 to 230 °C; for `COc1ccc(/C=N/NC(=O)Cc2nc3ncccc3[nH]c2=O)cc1` [Compound 6c]: 222 to 224 °C; for `O=C(Cc1nc2ncccc2[nH]c1=O)NN1C(=O)CCC1=O` [Compound 7a]: 210 to 212 °C.
Still for that read-out and setting: with `O=C(Cc1nc2ncccc2[nH]c1=O)NN1C(=O)C=CC1=O` [Compound 7b] the figure was 213 to 215 °C.
On the same count and under the same terms, with `O=C(Cc1nc2ncccc2[nH]c1=O)NN1C(=O)c2ccccc2C1=O` [Compound 7c] the figure was 211 to 213 °C; with `CCN(CC)Cc1nc2ncccc2[nH]c1=O` [Compound 8a], 262 to 263 °C; with `O=c1[nH]c2cccnc2nc1CN1CCCCC1` [Compound 8b], 277 to 279 °C.
As to `O=c1[nH]c2cccnc2nc1CN1CCOCC1` [Compound 8c], the melting point lay within 234 to 235 °C.
Molecule `O=c1[nH]c2cccnc2nc1CNc1ccccc1` [Compound 8d] showed a melting point of 248 to 250 °C.
Still for that read-out and setting: the same measure for `Cc1cccc(NCc2nc3ncccc3[nH]c2=O)c1` [Compound 8f]: 258 to 260 °C; for `Cc1ccc(NCc2nc3ncccc3[nH]c2=O)cc1` [Compound 8g]: 284 to 286 °C.
`O=c1[nH]c2cccnc2nc1CNc1ccc(Cl)cc1` [Compound 8h] yielded a melting point above 300 °C.
Same read-out and setting: with `O=c1[nH]c2cccnc2nc1CNc1ccc(Br)cc1` [Compound 8i] the figure was above 300 °C; with `O=c1[nH]c2cccnc2nc1CN(c1ccccc1)c1ccccc1` [Compound 8j], 292 to 293 °C; with `O=c1[nH]c2cccnc2nc1CN/N=C/c1ccccc1` [Compound 9a], 234 to 236 °C.
The same measure, in the same setting: with `O=c1[nH]c2cccnc2nc1CN/N=C/c1ccc(Cl)cc1` [Compound 9b] the figure was 237 to 239 °C.
Still for that read-out and setting: with `O=c1[nH]c2cccnc2nc1CN/N=C/c1ccc([N+](=O)[O-])cc1` [Compound 9c] the figure was 238 to 240 °C.
For `COc1ccc(/C=N/NCc2nc3ncccc3[nH]c2=O)cc1` [Compound 9d], the melting point fell in the range of 256 to 258 °C.
In the case of `C/C(=N\NCc1nc2ncccc2[nH]c1=O)c1ccccc1` [Compound 9e], the melting point lay in the range of 230 to 233 °C.
Turning to `O=c1[nH]c2cccnc2nc1Cc1n[nH]c(=O)n1-c1ccccc1` [Compound 10a], the melting point fell in the range of 220 to 222 °C.
On the same count and under the same terms, with `O=c1[nH]c2cccnc2nc1Cc1n[nH]c(=S)n1-c1ccccc1` [Compound 10c] the figure was 219 to 222 °C.
Still for that read-out and setting: with `CC(=O)N1N=C(Cc2nc3ncccc3[nH]c2=O)OC1c1ccccc1` (centres unmarked) [Compound 11a] the figure was 234 to 236 °C; with `CC(=O)N1N=C(Cc2nc3ncccc3[nH]c2=O)OC1c1ccc([N+](=O)[O-])cc1` (centres unmarked) [Compound 11b], 240 to 242 °C.
The same measure, in the same setting: with `COc1ccc(C2OC(Cc3nc4ncccc4[nH]c3=O)=NN2C(C)=O)cc1` (centres unmarked) [Compound 11c] the figure was 235 to 237 °C; with `O=C1Nc2cccnc2N2C1=CNN=C2c1ccccc1` [Compound 12a], 219 to 221 °C; with `O=C1Nc2cccnc2N2C1=CNN=C2c1ccc(Cl)cc1` [Compound 12b], 222 to 225 °C.
For the molecule `O=C1Nc2cccnc2N2C1=CNN=C2c1ccc([N+](=O)[O-])cc1` [Compound 12c], the melting point was in the range of 222 to 224 °C.
Same read-out and setting: with `COc1ccc(C2=NNC=C3C(=O)Nc4cccnc4N32)cc1` [Compound 12d] the figure was 229 to 231 °C.

For another series, the system named is PDE5.
Test: not given
The following applies: training set, supplement reference list; ref [1]; read-out: PDE5 IC50 Experimental; cited from earlier work.
Take `CCCc1nn(C)c2c(=O)[nH]c(-c3cc(S(=O)(=O)N4CCN(C)CC4)ccc3OCC)nc12` [t1, Sildenafil]: the IC50 is 2.2 nM.
For the molecule `CCCc1nc(C)c2c(=O)[nH]c(-c3cc(S(=O)(=O)N4CCN(CC)CC4)ccc3OCC)nn12` [t2, Vardenafil], the IC50 was […].
With `CN1CC(=O)N2[C@H](c3ccc4c(c3)OCO4)c3[nH]c4ccccc4c3C[C@@H]2C1=O` [t3, Tadalafil], the 50% inhibitory concentration (IC50) is 1.2 nM.

The same series, now with this note: training set, supplement reference list; ref [3]; read-out: PDE5 IC50 Experimental; cited from earlier work.
Turning to `COc1ccc(CNC(=O)c2cc([N+](=O)[O-])ccc2NC(C)CO)cc1OC` (centres unmarked) [t5, Benzamidenafil], the IC50 was 1.1 nM.
For `CCCc1nn(C)c2c(=S)nc(-c3cc(S(=O)(=O)N4C[C@@H](C)N[C@@H](C)C4)ccc3OCC)[nH]c12` [t15, Thioaildenafil], the IC50 was 0.6 nM.
In the case of `CCCc1nn(C)c2c(=O)[nH]c(-c3cc([N+](=O)[O-])ccc3OCC)nc12` [t16, Nitrodenafil], the IC50 was 67.4 nM.
Take `CCCc1nn(C)c2c(=O)[nH]c(-c3cc(C(=O)CN4C[C@@H](C)N[C@@H](C)C4)ccc3OCC)nc12` [t17, Dimethylacetildenafil]: the IC50 was 51.2 nM.

Still in this series, the particulars now being: training set, supplement reference list; ref [5]; read-out: PDE5 IC50 Experimental; cited from earlier work.
`COc1ccc(CN=c2[nH]c(N3CCC[C@H]3CO)ncc2C(=O)NCc2ncccn2)cc1Cl` [t6, Avanafil]: the IC50 is 5.2 nM.
As for `CCCc1nn(C)c2c(=O)[nH]c(-c3cc(S(=O)(=O)N4CCN(CC)CC4)ccc3OCC)nc12` [t7, Homosildenafil], the IC50 was 3.8 nM.
Consider `CCCc1nn(C)c2c(=O)[nH]c(-c3cc(S(=O)(=O)N4CCN(CCO)CC4)ccc3OCC)nc12` [t8, Hydroxyhomosildenafil], for which the IC50 was 3.4 nM.
For the molecule `CCCc1nn(C)c2c(=O)[nH]c(-c3cc(C(=O)CN4CCN(CC)CC4)ccc3OCC)nc12` [t9, Acetildenafil], the IC50 is 7.6 nM.
Take `CCCc1nn(C)c2c(=O)[nH]c(-c3cc(C(=O)CN4CCN(CCO)CC4)ccc3OCC)nc12` [t10, Hydroxyacetildenafil]: the IC50 is 58.4 nM.
Turning to `CCCc1nn(C)c2c(=S)nc(-c3cc(S(=O)(=O)N4CCN(C)CC4)ccc3OCC)[nH]c12` [t11, Thiosildenafil], the IC50 is 0.6 nM.
For the molecule `NN1CC(=O)N2[C@H](c3ccc4c(c3)OCO4)c3[nH]c4ccccc4c3C[C@@H]2C1=O` [t116, Aminotadalafil], the IC50 is 4.2 nM.

Staying with this series, now noted: training set, supplement reference list; ref [6]; read-out: PDE5 IC50 Experimental; cited from earlier work.
`CCCOc1ccc(S(=O)(=O)NCCC2CCCN2C)cc1-c1nc2c(CCC)nn(C)c2c(=O)[nH]1` (centres unmarked) [t13, Udenafil]: the IC50 was 8.3 nM.
As for Carbodenafil [t12], the IC50 was 5.2 nM.

Staying with this series, now noted: training set, supplement reference list; ref [7]; read-out: PDE5 IC50 Experimental; cited from earlier work.
For `CCCOc1ccccc1-c1nc2nn[nH]c2c(=O)[nH]1` [t18, Zaprinast], the IC50 was […].

These data come from publication PMC9501832 (Pharmaceutics, 2022).
